For assay [1], the system named is Tg-AD mice (APPK595N, M596L+PS1ΔE9). Nature of the assay: Cop-1 vaccination of Tg-AD mice: neurogenesis in hippocampal dentate gyrus (BrdU, NeuN, DCX). Format: in vivo, mouse. The protocol: For BrdU staining, sections were washed with PBS and incubated in 2N HCl at 37° C. for 30 min. Sections were blocked for 1 h with blocking solution [PBS containing 20% normal horse serum and 0.1% Triton X-100, or PBS containing mouse immunoglobulin blocking reagent obtained from Vector Laboratories (Burlingame, Calif.)].
For immunohistochemistry, tissue sections were treated with a permeabilization/blocking solution containing 10% FCS, 2% bovine serum albumin, 1% glycine, and 0.05% Triton X-100 (Sigma-Aldrich, St. Louis). Tissue sections were stained overnight at 4° C. with specified combinations of the following primary antibodies: rat anti-BrdU (1:200; Oxford Biotechnology, Kidlington, Oxfordshire, UK), goat anti-doublecortin (anti-DCX) (1:400; Santa Cruz Biotechnology, Santa Cruz, Calif.), and mouse anti-neuronal nuclear protein (anti-NeuN) (1:200; Chemicon). […] Expression of IGF-I was detected by goat anti-IGF-I Abs (1:20; R&D Systems). Expression of TNF-α was detected by goat anti-TNF-α Abs (1:100; R&D Systems). T cells were detected with anti-CD3 polyclonal Abs (rabbit, 1:100; DakoCytomation, CA). […]
For in-vivo experiments, the numbers of Aβ plaques and CD11b^+ microglia in the hippocampus were counted at 300-μm intervals in 6-8 coronal sections (30 μm) from each mouse. Neurogenesis in the dentate gyrus was evaluated by counting of pre-mature neurons (DCX^+), proliferating cells (BrdU^+), and newly formed mature neurons (BrdU^+/NeuN^+) in six coronal sections (370 μm apart) per mouse brain. To obtain an estimate of the total number of labeled cells per dentate gyrus, the total number of cells counted in the selected coronal sections from each brain was multiplied by the volume index (the ratio between the volume of the dentate gyrus and the total combined volume of the selected sections). […] Quantification of CD3^+, CD11b^+ and CD11c^+ cells were analyzed from 30-50 Aβ-plaques of each mouse tested in this study. […]

Assay [2] concerns retinal ganglion cells (RGCs). The note with it: cited from earlier work.
The test system of assay [3] is Tg-AD mice (APPK595N, M596L+PS1ΔE9). Description: Morris water maze (MWM) spatial learning/memory in Cop-1-vaccinated Tg-AD mice. In kind it is in vivo, mouse. The note with it: acquisition and reversal tasks (FIGS. 7A-7B). The protocol:
(§1) Each mouse was subcutaneously injected five times with a total of 100 μg of high-molecular-weight (TV-5010 DS, from batch no. 486220205; Teva Pharmaceutical Industries, Petach Tikva, Israel) emulsified in 200 μl PBS, from experimental day 0 until day 24, twice during the first week and once a week thereafter.
Spatial learning/memory was assessed by performance on a hippocampus-dependent visuo-spatial learning task in the Morris water maze (MWM) and carried out as described (Lichtenwalner et al., 2001).
MWM behavior scores were analyzed using […]. Treatment group and trial block were used as sources of variation to evaluate the significance of differences between mean scores during acquisition trial blocks in the MWM.
Two weeks before the end of the experiment, all mice were tested in a Morris water maze (MWM) for cognitive activity, as reflected by their performance of a hippocampus-dependent spatial learning/memory task. […] Differences in cognitive performance were manifested in both the acquisition (FIG. 7A) and the reversal tasks (FIG. 7B).

The test system is the same in assay [4]. Nature of the assay: Cop-1 vaccination of Tg-AD mice: Aβ plaques, microglial phenotype and T cells in hippocampus (immunohistochemistry). Format: in vivo, mouse. The protocol: For immunohistochemistry, tissue sections were treated with a permeabilization/blocking solution containing 10% FCS, 2% bovine serum albumin, 1% glycine, and 0.05% Triton X-100 (Sigma-Aldrich, St. Louis). Tissue sections were stained overnight at 4° C. with specified combinations of the following primary antibodies: rat anti-BrdU (1:200; Oxford Biotechnology, Kidlington, Oxfordshire, UK), goat anti-doublecortin (anti-DCX) (1:400; Santa Cruz Biotechnology, Santa Cruz, Calif.), and mouse anti-neuronal nuclear protein (anti-NeuN) (1:200; Chemicon). Secondary antibodies were FITC-conjugated donkey anti-goat, Cy-3-conjugated donkey anti-mouse, and Cy-3- or Cy-5-conjugated donkey anti-rat (1:200; Jackson ImmunoResearch, West Grove, Pa.). CD11b (MAC1; 1:50; BD—Pharmingen) or FITC-conjugated 113-4 was used for labeling of microglia. Anti-MHC-II Abs (rat, clone IBL-5/22; 1:50) was used to detect expression of cell-surface MHC-II proteins. To detect expression of CD11c hamster anti-CD11c (1:100; eBioscience, San Diego, Calif.) was used. Anti-Aβ (human amino-acid residues 1-17) (mouse, clone 6E10; Chemicon) was used to detect expression of human Aβ. Expression of IGF-I was detected by goat anti-IGF-I Abs (1:20; R&D Systems). Expression of TNF-α was detected by goat anti-TNF-α Abs (1:100; R&D Systems). T cells were detected with anti-CD3 polyclonal Abs (rabbit, 1:100; DakoCytomation, CA). Propidium iodide (1 μg/ml; Molecular Probes, Invitrogen, Carlsbad, Calif.), was used for nuclear staining.
Nineteen adult double-transgenic APPK595N, M596L+PS1ΔE9 mice of the B6C3-Tg (APPswe, PSEN1dE9) 85 Dbo/J strain (Borchelt et al., 1997) were purchased from The Jackson Laboratory (Bar Harbor, Me.) and were bred and maintained in the Animal Breeding Center of The Weizmann Institute of Science. All animals were handled according to the regulations formulated by the Weizmann Institute's Animal Care and Use Committee, and all experiments and procedures were approved by the Weizmann Institute's Animal Care and Use Committee.
as §1
For in-vivo experiments, the numbers of Aβ plaques and CD11b^+ microglia in the hippocampus were counted at 300-μm intervals in 6-8 coronal sections (30 μm) from each mouse. Neurogenesis in the dentate gyrus was evaluated by counting of pre-mature neurons (DCX^+), proliferating cells (BrdU^+), and newly formed mature neurons (BrdU^+/NeuN^+) in six coronal sections (370 μm apart) per mouse brain. To obtain an estimate of the total number of labeled cells per dentate gyrus, the total number of cells counted in the selected coronal sections from each brain was multiplied by the volume index (the ratio between the volume of the dentate gyrus and the total combined volume of the selected sections). Specificity of BrdU+/NeuN+ co-expression was assayed using the confocal microscope (LSM 510) in optical sections at 1-μm intervals. Quantification of CD3^+, CD11b^+ and CD11c^+ cells were analyzed from 30-50 Aβ-plaques of each mouse tested in this study. Cell counts, numbers of Aβ plaques, plaque areas, and intensity of NeuN staining per unit area in the dentate gyrus were evaluated automatically using Image-Pro Plus 4.5 software (Media Cybernetics, Carlsbad, Calif.).
We verified the presence of both transgenes in each mouse by PCR amplification of genomic DNA. Tg-AD mice aged approximately 8 months were then vaccinated subcutaneously with Cop-1 (n=6) twice during the first week and once a week thereafter. Age-matched untreated Tg-AD mice (n=7) and non-Tg littermates (n=6) served, respectively, as untreated-Tg and wild-type controls. Seven weeks after the first Cop-1 injection all the mice were euthanized and analyzed. […]

The mark [5] stands for this setting: vaccinated Tg-AD mice (FIG. 2D).

Take glatiramer acetate [Cop-1]: the “newly formed mature neurons (BrdU+/NeuN+) in dentate gyrus” value in assay [1] (compared to non-Tg littermates (FIG. 6B)) is given as “similar”. In assay [1] (relative to non-Tg littermates (FIG. 6C)), the “pre-mature neurons (DCX+ cells) in dentate gyri” value is given as “slightly but significantly more”. Moreover, the “proliferating cells (BrdU+) in dentate gyrus” value in assay [1] (vs untreated-Tg counterparts (FIG. 6A)) is given as “significantly more”. Further, the “outcome of weekly administration of adjuvant-free agent” value in assay [2] (model of chronically elevated intraocular pressure (Bakalash et al., 2005)) is given as “neuroprotection”. Also, in assay [2] (rat model of chronically high intraocular pressure, vaccination), the RGC loss entry is recorded as “significantly reduces RGC loss”. Besides, in assay [3], the “MWM performance vs non-Tg littermates” value is “did not differ significantly” and the “MWM performance vs untreated-Tg-AD mice” value was “superior to that of the untreated-Tg-AD mice”. For the same substance, the “Aβ plaques in brain cryosections stained for human Aβ” value in assay [4] (s.c. vaccination, seven weeks after first injection, vs untreated Tg-AD mice (FIG. 2A)) is “very few”. In assay [4] (setting [5]), the “MHC-II expression by microglia adjacent to residual Aβ plaques” value is “most of the microglia adjacent to residual Aβ plaques expressed MHC-II” and the “TNF-α expression by microglia adjacent to residual Aβ plaques” value is “hardly any of them expressed TNF-α”. Moreover, the “IGF-I expression by MHC-II+ microglia” value in assay [4] (vaccinated Tg-AD mice (FIG. 2F)) is reported as “found to express IGF-I”. For the same substance, the “CD11b+ cells that became CD11b+/CD11c+ cells (associated with Aβ-plaque)” value in assay [4] (vaccinated Tg-AD mice, 25% in untreated Tg-AD mice (FIG. 3C)) amounted to 87%. Besides, the “NeuN+ staining in hippocampal CA1 and dentate gyrus” value in assay [4] (vaccinated Tg-AD mouse relative to non-Tg littermate (FIG. 2A)) is given as “almost normal”. For the same substance, the “area occupied by the plaques (Aβ-immunoreactivity)” value in assay [4] (vs age-matched untreated Tg-AD mice (FIG. 2J)) is reported as “significantly smaller”. In addition, the “total number of Aβ-plaques (30-μm hippocampal slice)” value in assay [4] (vs untreated Tg-AD mice (FIG. 2I)) is given as “significantly fewer plaques”. For the same substance, the “CD11b+ microglia in hippocampus” value in assay [4] (vs untreated Tg-AD mice (FIG. 2K)) was “significantly fewer”. For the same substance, the “T cells (CD3+) associated with Aβ-plaque” value in assay [4] (vs untreated Tg-AD mice (FIG. 2L)) was “significantly more”. The “number of CD11b+ cells associated with Aβ-plaque” value in assay [4] (vs untreated Tg-AD mice (FIG. 3B)) was “significantly decreased”.

These data come from US9089509B2, “Method of treatment of age-related macular degeneration” (YEDA RESEARCH AND DEVELOPMENT CO., LTD., priority 2006, dated 2015).
